Our source for the IC50 and Activity values is ChEMBL document CHEMBL1137473, “Pyrazole-based cathepsin S inhibitors with improved cellular potency” (Bioorg Med Chem Lett, 2007).

The source made the active and inactive calls. The rule behind the calls is not given here. Where only a bound is given, the exact number is not on record here.

For assay [1], the target named is T1, Cathepsin S (Homo sapiens, UniProt P25774). Description: Inhibition of human cathepsin S.
Target sequence in this assay (P25774 whole entry): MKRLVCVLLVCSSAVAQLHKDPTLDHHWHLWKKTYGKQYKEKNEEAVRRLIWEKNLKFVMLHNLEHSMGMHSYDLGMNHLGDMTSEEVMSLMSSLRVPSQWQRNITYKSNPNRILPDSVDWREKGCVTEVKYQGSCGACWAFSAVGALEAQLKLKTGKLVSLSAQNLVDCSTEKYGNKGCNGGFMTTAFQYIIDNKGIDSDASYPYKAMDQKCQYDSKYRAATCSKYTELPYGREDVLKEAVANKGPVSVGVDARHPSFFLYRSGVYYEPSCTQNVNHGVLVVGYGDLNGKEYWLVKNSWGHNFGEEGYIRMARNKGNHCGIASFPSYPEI
Assay [2] concerns the target T1, Cathepsin S. Description: Inhibition of cathepsin S in human JY cells by invariant chain degradation assay. Type of assay: cell-based.
Target sequence in this assay (P25774 whole entry): as above
For assay [3], the target named is T2, Legumain (Homo sapiens) (UniProt Q99538).
T2 sequence (whole entry): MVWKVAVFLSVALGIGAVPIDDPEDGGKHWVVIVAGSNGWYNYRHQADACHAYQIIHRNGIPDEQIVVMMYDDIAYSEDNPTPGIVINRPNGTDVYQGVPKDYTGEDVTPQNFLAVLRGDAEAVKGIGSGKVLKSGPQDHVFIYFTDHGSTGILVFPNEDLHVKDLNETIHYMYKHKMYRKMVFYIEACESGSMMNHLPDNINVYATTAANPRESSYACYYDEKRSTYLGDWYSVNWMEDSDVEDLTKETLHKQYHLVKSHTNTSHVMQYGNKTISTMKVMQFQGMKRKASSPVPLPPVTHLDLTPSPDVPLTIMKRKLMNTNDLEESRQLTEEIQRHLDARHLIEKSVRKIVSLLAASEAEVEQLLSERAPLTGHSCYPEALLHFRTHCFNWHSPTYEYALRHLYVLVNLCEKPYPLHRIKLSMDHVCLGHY
Description: Inhibition of legumain upto 5 uM.

Assay [4] has as its target Procathepsin L (Homo sapiens) (UniProt P07711). Description: Inhibition of cathepsin L upto 5 uM.
For assay [5], the target named is Cathepsin B (Homo sapiens) (UniProt P07858). Description: Inhibition of cathepsin B upto 5 uM.
Assay [6] addresses T3, Cathepsin E (Homo sapiens) (UniProt P14091).
T3 sequence (whole entry): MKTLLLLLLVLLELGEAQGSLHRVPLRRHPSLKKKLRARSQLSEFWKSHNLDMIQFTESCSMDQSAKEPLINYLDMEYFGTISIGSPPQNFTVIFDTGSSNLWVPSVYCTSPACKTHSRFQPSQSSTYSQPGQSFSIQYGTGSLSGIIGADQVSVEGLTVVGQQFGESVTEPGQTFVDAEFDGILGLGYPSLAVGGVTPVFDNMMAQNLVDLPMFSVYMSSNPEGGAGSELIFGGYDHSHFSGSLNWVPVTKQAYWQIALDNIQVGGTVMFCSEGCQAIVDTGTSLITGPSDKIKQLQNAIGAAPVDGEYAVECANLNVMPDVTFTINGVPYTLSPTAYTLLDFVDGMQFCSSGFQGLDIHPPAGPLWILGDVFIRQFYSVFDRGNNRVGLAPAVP
Description: Inhibition of cathepsin E upto 5 uM.

Assay [7] concerns the target T1, Cathepsin S. Description: Inhibition of cathepsin S in human JY cells upto 10 uM by invariant chain degradation assay. Type of assay: cell-based.
Target sequence in this assay (P25774 115-331 limits assumed): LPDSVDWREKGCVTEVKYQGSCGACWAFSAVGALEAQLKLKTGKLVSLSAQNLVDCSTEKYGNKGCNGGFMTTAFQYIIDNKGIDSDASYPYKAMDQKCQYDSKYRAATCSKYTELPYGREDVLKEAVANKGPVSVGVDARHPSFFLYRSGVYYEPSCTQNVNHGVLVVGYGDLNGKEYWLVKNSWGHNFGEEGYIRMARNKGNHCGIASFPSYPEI

Sequence of Procathepsin L (Homo sapiens) (P07711 114-333 limits assumed): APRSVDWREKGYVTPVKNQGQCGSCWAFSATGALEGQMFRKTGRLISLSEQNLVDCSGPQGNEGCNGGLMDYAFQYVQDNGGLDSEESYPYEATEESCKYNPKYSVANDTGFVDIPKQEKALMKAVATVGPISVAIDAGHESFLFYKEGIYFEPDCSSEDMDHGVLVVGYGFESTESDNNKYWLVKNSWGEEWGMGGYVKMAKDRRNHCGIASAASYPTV

Regarding `COC(=O)c1sc2cc(F)ccc2c1C1CCN(CCCn2nc(-c3ccc(C(F)(F)F)cc3)c3c2CCN(S(C)(=O)=O)C3)CC1`, the IC50 is 130 nM in assay [1] and 1800 nM in assay [2].

In the case of `CS(=O)(=O)N1CCc2c(c(-c3ccc(C(F)(F)F)cc3)nn2CC(O)CN2CCC(N3C(=O)COc4ccccc43)CC2)C1` (stereo unspecified), the results for the 50% inhibitory concentration (IC50) in assay [1] and in assay [2] were 10 nM and 800 nM, respectively.

For the compound `CN(C)C(=O)c1sc2cc(F)ccc2c1C1CCN(CCCn2nc(-c3ccc(C(F)(F)F)cc3)c3c2CCN(S(C)(=O)=O)C3)CC1`, the IC50 in assay [1] amounted to 370 nM.

On to `CS(=O)(=O)N1CCc2c(c(-c3ccc(C(F)(F)F)cc3)nn2CC(O)CN2CCC(c3csc4cc(F)ccc34)CC2)C1` (stereo unspecified), for which the IC50 in assay [1] is 180 nM.

As to `CS(=O)(=O)N1CCc2c(c(-c3ccc(C(F)(F)F)cc3)nn2CC(O)CN2CCC(c3c[nH]c4ccncc34)CC2)C1` (stereo unspecified), the result in assay [3], in assay [4], in assay [5] and in assay [6] was inactive.

`CS(=O)(=O)N1CCc2c(c(-c3ccc(C(F)(F)F)cc3)nn2CC(O)CN2CCC(c3c[nH]c4ncccc34)CC2)C1` (stereo unspecified): the outcome in assay [3], in assay [4] and in assay [6] was inactive.

Turning to `COC(=O)c1sc2cc(F)ccc2c1C1CCN(CC(O)Cn2nc(-c3ccc(C(F)(F)F)cc3)c3c2CCN(C(C)=O)C3)CC1` (stereo unspecified), in assay [1], the IC50 was determined as 140 nM.

Turning to `CS(=O)(=O)N1CCc2c(c(-c3ccc(Br)cc3)nn2CC(O)CN2CCC(c3c[nH]c4ncccc34)CC2)C1` (stereo unspecified), the IC50 in assay [1] turned out to be 195 nM.

As for `CS(=O)(=O)N1CCc2c(c(-c3ccc(C(F)(F)F)cc3)nn2CCCN2CCC(c3c(C(=O)O)sc4cc(F)ccc34)CC2)C1`, the IC50 in assay [1] is 100 nM; in assay [2], above 10000 nM.

Take `Cn1c(=O)n(C2CCN(CCCn3nc(-c4ccc(Cl)c(Cl)c4)c4c3CCN(S(C)(=O)=O)C4)CC2)c2ccccc21`: the IC50 came out at 10 nM in assay [1] and 800 nM in assay [2].

In the case of `CS(=O)(=O)N1CCc2c(c(-c3ccc(C(F)(F)F)cc3)nn2CC(O)CN2CCC(c3c[nH]c4cccnc34)CC2)C1` (stereo unspecified), the outcome in assay [3], in assay [4], in assay [5] and in assay [6] was inactive.

As to `COC(=O)c1oc2cc(F)ccc2c1C1CCN(CC(O)Cn2nc(-c3ccc(C(F)(F)F)cc3)c3c2CCN(C(C)=O)C3)CC1` (stereo unspecified), in assay [1], 220 nM corresponded to half-maximal inhibition (IC50).

As for `CS(=O)(=O)N1CCc2c(c(-c3ccc(Br)cc3)nn2CC(O)CN2CCC(c3c[nH]c4ccncc34)CC2)C1` (stereo unspecified), the IC50 in assay [1] worked out at 77 nM; in assay [2], 150 nM.

As for `CC(=O)N1CCc2c(c(-c3ccc(C(F)(F)F)cc3)nn2CC(O)CN2CCC(c3c[nH]c4ccc(Cl)cc34)CC2)C1` (stereo unspecified), the IC50 in assay [1] worked out at 95 nM. Besides, the outcome in assay [7] was inactive.

For the compound `N#Cc1ccccc1N1CCN(CC(Cn2nc(-c3ccc(I)cc3)c3c2CCN(C(N)=O)C3)OC(N)=O)CC1` (stereo unspecified), the results for the IC50 in assay [1] and in assay [2] were 10 nM and 800 nM, respectively.

In the case of `CC(=O)N1CCc2c(c(-c3ccc(C(F)(F)F)cc3)nn2CC(O)CN2CCC(c3csc4cc(F)ccc34)CC2)C1` (stereo unspecified), in assay [1], the IC50 was found to be 290 nM.

For the compound `CC(=O)N1CCc2c(c(-c3ccc(C(F)(F)F)cc3)nn2CC(O)CN2CCC(c3coc4cc(F)ccc34)CC2)C1` (stereo unspecified), the IC50 in assay [1] is 360 nM.

Consider `CS(=O)(=O)N1CCc2c(c(-c3ccc(C(F)(F)F)cc3)nn2CC(O)CN2CCC(c3c[nH]c4cnccc34)CC2)C1` (stereo unspecified), for which the result in assay [3], in assay [4], in assay [5] and in assay [6] was inactive.
